Data: ChEMBL document CHEMBL4038308, “Lipophosphonoxins II: Design, Synthesis, and Properties of Novel Broad Spectrum Antibacterial Agents” (J Med Chem, 2017)
The source made the active and inactive calls.

Assays:
[1] = tested on: Bacillus subtilis; experiment: Antibacterial activity against Bacillus subtilis assessed as inhibition of plasma membrane lipids synthesis at 100 mg/L after 50 mins by [3H]-sodium acetate incorporation assay; type: functional
[2] = tested on: Bacillus subtilis; experiment: Antibacterial activity against Bacillus subtilis assessed as inhibition of protein synthesis at 100 mg/L after 50 mins by [35S]-methionine incorporation assay; type: functional
[3] = tested on: Bacillus subtilis; experiment: Antibacterial activity against Bacillus subtilis assessed as inhibition of RNA synthesis at 100 mg/L after 50 mins by [3H]-uridine incorporation assay; type: functional
[4] = tested on: Bacillus subtilis; experiment: Antibacterial activity against Bacillus subtilis assessed as inhibition of peptidoglycan synthesis at 100 mg/L after 50 mins by [3H]-N-acetylglucosamine incorporation assay; type: functional
[5] = tested on: Bacillus subtilis; experiment: Antibacterial activity against Bacillus subtilis assessed as inhibition of DNA synthesis at 100 mg/L after 50 mins by [3H]thymidine incorporation assay; type: functional
[6] = tested on: Staphylococcus aureus; experiment: Bactericidal activity against Staphylococcus aureus CCM 4223 assessed as reduction in bacterial count at 6.25 to 12.5 mg/L after 24 hrs by time kill assay; type: functional
[7] = tested on: Staphylococcus aureus; experiment: Bactericidal activity against Staphylococcus aureus CCM 4223 assessed as reduction in bacterial count at 25 mg/L after 6 hrs by time kill assay; type: functional
[8] = tested on: Acinetobacter baumannii; experiment: Antibacterial activity against Acinetobacter baumannii A3-08 after 24 hrs by microdilution method; type: functional; conditions: A3-08, 24 h
[9] = tested on: Staphylococcus haemolyticus; experiment: Antibacterial activity against fluoroquinolne-resistant Staphylococcus haemolyticus 16568 after 24 hrs by microdilution method; type: functional; conditions: Staphylococcus haemolyticus, 16568, 24 h
[10] = tested on: Staphylococcus aureus; experiment: Antibacterial activity against Staphylococcus aureus CCM 4223 after 24 hrs by microdilution method; type: functional; conditions: CCM 4223, 24 h
[11] = tested on: TERT-RPE1; experiment: Cytotoxicity against human RPE1 cells assessed as disruption of cell membrane integrity after 4 hrs by CytoTox-ONE-based assay; conditions: tert-rpe1, 4 h
[12] = tested on: Escherichia coli; experiment: Antibacterial activity against Escherichia coli 16702 after 24 hrs by microdilution method; type: functional; conditions: Escherichia coli, 16702, 24 h
[13] = tested on: TERT-RPE1; experiment: Induction of apoptosis in human RPE1 cells assessed as caspase 3/7 activation up to 80 mg/L after 4 hrs by caspase-Glo 3/7 luminescent assay; type: cell-based; conditions: tert-rpe1, 4 h
[14] = tested on: Mus musculus; experiment: Toxicity in ICR mouse assessed as mortality up to 2000 mg/kg, po administered as single dose measured for 2 weeks; type: organism-based; conditions: in vivo, 336 h
[15] = tested on: Staphylococcus epidermidis; experiment: Antibacterial activity against Staphylococcus epidermidis 8700/B after 24 hrs by microdilution method; type: functional
[16] = tested on: Oryctolagus cuniculus; experiment: Toxicity in topically applied rabbit assessed as skin irritation measured by measuring physiological abnormalities up to 7 days post dose; conditions: in vivo, topical_or_ocular, 168 h
[17] = tested on: Stenotrophomonas maltophilia; experiment: Antibacterial activity against Stenotrophomonas maltophilia S2-23 after 24 hrs by microdilution method; type: functional; conditions: S2-23, 24 h
[18] = Chemical stability of compound at 50 to 500 mg/L at pH 0.18 after 24 hrs at room temperature by LC-MS analysis; type: physicochemical; conditions: buffer, pH 0.18, 24 h
[19] = tested on: Bacillus subtilis; experiment: Antibacterial activity against Bacillus subtilis assessed as inhibition of DNA synthesis at 1.5 mg/L after 50 mins by [3H]thymidine incorporation assay; type: functional
[20] = Chemical stability of compound at 50 to 500 mg/L at pH 8.8 after 24 hrs at 37 degC by LC-MS analysis; type: physicochemical; conditions: buffer, pH 8.8, 24 h
[21] = tested on: HepG2; experiment: Cytotoxicity against human HepG2 cells assessed as disruption of cell membrane integrity after 4 hrs by CytoTox-ONE-based assay; conditions: hepg2, 4 h
[22] = tested on: Enterococcus faecalis; experiment: Antibacterial activity against Enterococcus faecalis CCM 4224 after 24 hrs by microdilution method; type: functional; conditions: CCM 4224, 24 h
[23] = tested on: Streptococcus agalactiae; experiment: Antibacterial activity against Streptococcus agalactiae after 24 hrs by microdilution method; type: functional
[24] = tested on: Pseudomonas aeruginosa; experiment: Antibacterial activity against Pseudomonas aeruginosa 16575 after 24 hrs by microdilution method; type: functional; conditions: Pseudomonas aeruginosa, 16575, 24 h
[25] = tested on: Staphylococcus aureus; experiment: Induction of cytoplasmic membrane permeabilization in Staphylococcus aureus CCM 4223 assessed as increase in propidium iodide fluorescence intensity at 5 mg/L by spectrofluorometric analysis; type: functional
[26] = tested on: Enterococcus faecium; experiment: Antibacterial activity against vancomycin-resistant Enterococcus faecium 419/ana clinical isolates after 24 hrs by microdilution method; type: functional
[27] = tested on: Pseudomonas aeruginosa; experiment: Antibacterial activity against Pseudomonas aeruginosa CCM 3955 after 24 hrs by microdilution method; type: functional; conditions: CCM 3955, 24 h
[28] = tested on: Escherichia coli; experiment: Induction of cytoplasmic membrane permeabilization in Escherichia coli CCM 3954 assessed as increase in propidium iodide fluorescence intensity at 5 mg/L by spectrofluorometric analysis; type: functional
[29] = tested on: Bacillus subtilis; experiment: Antibacterial activity against Bacillus subtilis assessed as inhibition of RNA synthesis at 1.5 mg/L after 50 mins by [3H]-uridine incorporation assay; type: functional
[30] = tested on: BJ; experiment: Cytotoxicity against human BJ cells assessed as reduction in cell viability after 48 hrs by ATPlite reagent based assay
[31] = tested on: TERT-RPE1; experiment: Cytotoxicity against human RPE1 cells assessed as reduction in cell viability after 48 hrs by ATPlite reagent based assay; conditions: tert-rpe1, 48 h
[32] = Chemical stability of compound at 50 to 500 mg/L at pH 8.8 after 24 hrs at room temperature by LC-MS analysis; type: physicochemical; conditions: buffer, pH 8.8, 24 h
[33] = Critical micellar concentration of the compound by capillary electrophoresis method
[34] = tested on: Escherichia coli; experiment: Bactericidal activity against Escherichia coli CCM 3954 assessed as reduction in bacterial count at 25 mg/L after 30 mins by time kill assay; type: functional
[35] = Chemical stability of compound at 50 to 500 mg/L at pH 0.18 after 24 hrs at 37 degC by LC-MS analysis; type: physicochemical; conditions: buffer, pH 0.18, 24 h
[36] = tested on: J774.A1; experiment: Cytotoxicity against mouse J774A.1 cells assessed as damage to cell membrane by measuring propidium iodide intake at 5 mg/L by spectrofluorometric analysis; type: cell-based
[37] = tested on: Bacillus subtilis; experiment: Antibacterial activity against Bacillus subtilis assessed as inhibition of peptidoglycan synthesis at 1.5 mg/L after 50 mins by [3H]-N-acetylglucosamine incorporation assay; type: functional
[38] = tested on: Lipid bilayer; experiment: Binding affinity to DOPG large unilamellar vesicle assessed as carboxyfluorescein leakage at 10 mg/L after 20 secs by fluorescence-based assay relative to control
[39] = tested on: Escherichia coli; experiment: Antibacterial activity against Escherichia coli CCM 3954 after 24 hrs by microdilution method; type: functional; conditions: CCM 3954, 24 h
[40] = tested on: HepG2; experiment: Induction of apoptosis in human HepG2 cells assessed as caspase 3/7 activation up to 80 mg/L after 4 hrs by caspase-Glo 3/7 luminescent assay; type: cell-based; conditions: hepg2, 4 h
[41] = tested on: Bacillus subtilis; experiment: Antibacterial activity against Bacillus subtilis assessed as inhibition of protein synthesis at 1.5 mg/L after 50 mins by [35S]-methionine incorporation assay; type: functional
[42] = tested on: Staphylococcus epidermidis; experiment: Induction of cytoplasmic membrane permeabilization in Staphylococcus epidermidis 8700/B assessed as increase in propidium iodide fluorescence intensity at 5 mg/L by spectrofluorometric analysis; type: functional
[43] = Chemical stability of compound at 50 to 500 mg/L at pH 5 after 24 hrs at room temperature by LC-MS analysis; type: physicochemical; conditions: buffer, pH 5, 24 h
[44] = tested on: Staphylococcus aureus; experiment: Antibacterial activity against methicillin-resistant Staphylococcus aureus 4591 clinical isolates after 24 hrs by microdilution method; type: functional; conditions: Staphylococcus aureus, 4591, 24 h
[45] = tested on: Pseudomonas aeruginosa; experiment: Induction of cytoplasmic membrane permeabilization in Pseudomonas aeruginosa CCM 3955 assessed as increase in propidium iodide fluorescence intensity at 5 mg/L by spectrofluorometric analysis; type: functional
[46] = tested on: Burkholderia multivorans; experiment: Antibacterial activity against Burkholderia multivorans after 24 hrs by microdilution method; type: functional
[47] = tested on: HepG2; experiment: Cytotoxicity against human HepG2 cells assessed as reduction in cell viability after 48 hrs by ATPlite reagent based assay; conditions: hepg2, 48 h
[48] = tested on: TERT-RPE1; experiment: Cytotoxicity against human RPE1 cells assessed as disruption of cell membrane integrity at >80 mg/L after 4 hrs by CytoTox-ONE-based assay; conditions: tert-rpe1, 4 h
[49] = tested on: Salmonella enteritidis; experiment: Antibacterial activity against Salmonella enteritidis S2-25 after 24 hrs by microdilution method; type: functional, Salmonella enterica subsp. enterica serovar Enteritidis; conditions: Salmonella enterica, S2-25, 24 h
[50] = Pore forming activity across black lipid bilayer membranes assessed as induction of variation in membrane current by measuring pore conductance at 5 ug/ml
[51] = tested on: Oryctolagus cuniculus; experiment: Toxicity in topically dosed rabbit assessed as skin irritation by measuring behavioral abnormalities measured up to 7 days post dose; type: organism-based; conditions: in vivo, topical_or_ocular, 168 h
[52] = tested on: Mus musculus; experiment: Toxicity in ICR mouse assessed as body weight loss up to 2000 mg/kg, po administered as single dose measured for 2 weeks; type: organism-based; conditions: in vivo, 336 h
[53] = tested on: Bacillus subtilis; experiment: Antibacterial activity against Bacillus subtilis after 24 hrs by microdilution method; type: functional
[54] = tested on: Bacillus subtilis; experiment: Antibacterial activity against Bacillus subtilis assessed as inhibition of plasma membrane lipids synthesis at 1.5 mg/L after 50 mins by [3H]-sodium acetate incorporation assay; type: functional
[55] = tested on: Escherichia coli; experiment: Bactericidal activity against Escherichia coli CCM 3954 assessed as reduction in bacterial count at 12.5 mg/L after 45 mins by time kill assay; type: functional
[56] = tested on: Oryctolagus cuniculus; experiment: Toxicity in topically applied rabbit assessed as skin irritation measured up to 14 days post dose; conditions: in vivo, topical_or_ocular, 336 h
[57] = Chemical stability of compound at 50 to 500 mg/L at pH 5 after 24 hrs at 37 degC by LC-MS analysis; type: physicochemical; conditions: buffer, pH 5, 24 h

CCn1cc(C(=O)O)c(=O)c2ccc(C)nc21
active: inhibition [1] | inhibition [2] | inhibition [3] | inhibition [4] | inhibition [5]

CCCCCCCCCCCCCCCOP(=O)(CCN(CCCNC(=N)N)CCCNC(=N)N)OC[C@H]1O[C@@H](n2ccc(=O)[nH]c2=O)[C@H](O)[C@@H]1O (stereo not given in full)
1.56 µg/mL: MIC [9] | MIC [15] | MIC [23] | MIC [24] | MIC [49]
active: Activity [6] | Activity [7] | Activity [25] | Activity [28] | Activity [34] | Activity [42] | Activity [45] | Activity [55]
inactive: inhibition [19] | inhibition [29] | inhibition [37] | inhibition [41] | inhibition [54]
1.42 mM: CMC [33]
Stable: Stability [18] | Stability [20] | Stability [32] | Stability [35] | Stability [43] | Stability [57]
39.8 mg/L: Activity [31]
0.39 µg/mL: MIC [53]
3.13 µg/mL: MIC [8] | MIC [10] | MIC [17] | MIC [44]
29.6 mg/L: Activity [30]
25 µg/mL: MIC [22] | MIC [46]
Non-Toxic: Activity [11] | Activity [13] | Activity [14] | Activity [16] | Activity [21] | Activity [36] | Activity [40] | Activity [48] | Activity [51] | Activity [52] | Activity [56]
0.78 µg/mL: MIC [12] | MIC [27] | MIC [39]
< 85%: Activity [38]
36.7 mg/L: Activity [47]
23 to 168 pS: Activity [50]
50 µg/mL: MIC [26]

CCCCCCCCCC(=O)N[C@@H](Cc1c[nH]c2ccccc12)C(=O)N[C@@H](CC(N)=O)C(=O)N[C@@H](CC(=O)O)C(=O)N[C@@H]1C(=O)NCC(=O)N[C@@H](CCCN)C(=O)N[C@@H](CC(=O)O)C(=O)N[C@H](C)C(=O)N[C@@H](CC(=O)O)C(=O)NCC(=O)N[C@H](CO)C(=O)N[C@@H]([C@H](C)CC(=O)O)C(=O)N[C@@H](CC(=O)c2ccccc2N)C(=O)O[C@@H]1C
500 pS: Activity [50]

CCCCCCCCCCCCCCOP(=O)(CCN(CCCNC(=N)N)CCCNC(=N)N)OC[C@H]1O[C@@H](n2ccc(=O)[nH]c2=O)[C@H](O)[C@@H]1O (stereo not given in full)
3.13 µg/mL: MIC [9] | MIC [12] | MIC [15] | MIC [23] | MIC [27] | MIC [39] | MIC [49]
1.56 µg/mL: MIC [53]
6.25 µg/mL: MIC [10] | MIC [24] | MIC [44]
50 µg/mL: MIC [26]
12.5 µg/mL: MIC [8] | MIC [17] | MIC [22]
100 µg/mL: MIC [46]
active: Activity [38]
